The values that follow come from US20100048534A1, “CRYSTALLINE LESTAURTINIB HYDRATES AND CRYSTALLINE LESTAURTINIB HEMIHYDRATE HEMIACETONITRILEATE AND CRYSTALLINE LESTAURTINIB HEMIHYDRATE HEMITETRAHYDROFURANATE” (priority 2005, published 2010).

The data set is described as follows: Solid-state stability and moisture sorption versus relative humidity (dynamic moisture sorption gravimetry, DMSG). The class given is physicochemical.

Take `C[C@]12O[C@H](C[C@]1(O)CO)n1c3ccccc3c3c4c(c5c6ccccc6n2c5c31)CNC4=O` [Crystalline lestaurtinib anhydrate, lestaurtinib anhydrate]: the “water content of solid-state phase by DMSG” value (25° C., between 0% and 5% RH, w/w) is on record as “less than 0.5%”. For the setting “ambient temperature, above 5% RH”, the “behaviour above 5% RH” value is listed as “absorbs moisture above 5% RH to form crystalline lestaurtinib monohydrate”.
